From patent US12435044B2, “Pyridazinone herbicides and pyridazinone intermediates used to prepare a herbicide” (FMC Corporation, priority 2018, dated 2025)

Assays:
Type in all cases: in vivo
[1] = test system: blackgrass (Alopecurus myosuroides); test: Test D pre-/postemergence controlled growth environment test
From the text: (§1) Seeds of plant species selected from blackgrass (Alopecurus myosuroides), galium (catchweed bedstraw, Galium aparine), kochia (Kochia scoparia), oilseed rape (Brassica napus), barley, spring (Hordeum vulgare), wheat, spring (Triticum aestivum), oat, wild (Avena fatua), barley, winter (Hordeum vulgare) and wheat, winter (Triticum aestivum) were planted into a silt loam soil and treated preemergence with test chemicals formulated in a non-phytotoxic solvent mixture which included a surfactant.
(§2) At the same time, plants selected from these crop and weed species and also bluegrass (annual bluegrass, Poa annua), canarygrass (littleseed canarygrass, Phalaris minor), chickweed (common chickweed, Stellaria media), bromegrass, downy (downy bromegrass, Bromus tectorum), field poppy (Papaver rhoeas), field violet (Viola arvensis), foxtail, green (Setaria viridis), deadnettle (henbit deadnettle, Lamium amplexicaule), ryegrass, Italian (Lolium multiflorum), lambsquarters (Chenopodium album), pigweed (Amaranthus retroflexus), chamomile (scentless chamomile, Matricaria inodora), Russian thistle (Salsola kali), speedwell (bird's-eye speedwell, Veronica persica), buckwheat, wild (Polygonum convolvulus), mustard, wild (Sinapis arvensis), radish, wild (Raphanus raphanistrum), windgrass (Apera spica-venti), geranium, cutleaf (Geranium dissectum) and Canada thistle (Cirsium arvense) were planted in pots containing Redi-Earth® planting medium (Scotts Company, 14111 Scottslawn Road, Marysville, Ohio 43041) comprising spaghnum peat moss, vermiculite, wetting agent and starter nutrients and treated with postemergence applications of the test chemicals formulated in the same manner. Plants ranged in height from 2 to 18 cm (1- to 4-leaf stage). Treated plants and controls were maintained in a controlled growth environment for 14 to 21 d after which time all species were compared to controls and visually evaluated. Plant response ratings, summarized in Table D, are based on a scale of 0 to 100 where 0 is no effect and 100 is complete control. A dash (-) response means no test result.

[2] = test system: wheat, spring (Triticum aestivum); test: as above
From the text: as §1, §2

[3] = test system: barley, winter (Hordeum vulgare); test: as above
From the text: as §1, §2

[4] = test system: oilseed rape (Brassica napus); test: as above
From the text: as §1, §2

kochia (Kochia scoparia) = test: Test A pre-/postemergence greenhouse test
From the text: (§3) Seeds of plant species selected from barnyardgrass (Echinochloa crus-galli), kochia (Kochia scoparia), ragweed (common ragweed, Ambrosia elatior), ryegrass, Italian (Lolium multiflorum), foxtail, giant (Setaria faberii), foxtail, green (Setaria viridis) and pigweed (Amaranthus retroflexus) were planted into a blend of loam soil and sand and treated preemergence with a directed soil spray using test chemicals formulated in a non-phytotoxic solvent mixture which included a surfactant.
(§4) At the same time, plants selected from these weed species and also wheat (Triticum aestivum), corn (Zea mays), blackgrass (Alopecurus myosuroides) and galium (catchweed bedstraw, Galium aparine) were planted in pots containing the same blend of loam soil and sand and treated with postemergence applications of test chemicals formulated in the same manner. Plants ranged in height from 2 to 10 cm and were in the one- to two-leaf stage for the postemergence treatment. Treated plants and untreated controls were maintained in a greenhouse for approximately 10 d, after which time all treated plants were compared to untreated controls and visually evaluated for injury. Plant response ratings, summarized in Table A, are based on a 0 to 100 scale where 0 is no effect and 100 is complete control. A dash (-) response means no test result.

[5] = test system: pigweed (Amaranthus retroflexus); test: Test A pre-/postemergence greenhouse test
From the text: as §3, §4

[6] = test system: ragweed (common ragweed, Ambrosia elatior); test: Test A pre-/postemergence greenhouse test
From the text: as §3, §4

[7] = test system: ryegrass, Italian (Lolium multiflorum); test: Test A pre-/postemergence greenhouse test
From the text: as §3, §4

[8] = test system: barnyardgrass (Echinochloa crus-galli); test: Test A pre-/postemergence greenhouse test
From the text: as §3, §4

[9] = test system: ducksalad (Heteranthera limosa); test: Test C flooded paddy test; details: Flood, scale 0 to 100
From the text: (§5) Plant species in the flooded paddy test consisted of rice (transplanted and water seeded, Oryza sativa), sedge, umbrella (small-flower umbrella sedge, Cyperus difformis), ducksalad (Heteranthera limosa), Bulrush, Japanese (Scirpus juncoides) and barnyardgrass (Echinochloa crus-galli) grown to the 2-leaf stage for testing. At time of treatment, test pots were flooded to 3 cm above the soil surface, treated by application of test compounds directly to the paddy water, and then maintained at that water depth for the duration of the test. Treated plants and controls were maintained in a greenhouse for 13 to 15 d, after which time all species were compared to controls and visually evaluated. Plant response ratings, summarized in Table C are based on a scale of 0 to 100 where 0 is no effect and 100 is complete control. A dash (-) response means no test result.

[10] = test system: sedge, umbrella (small-flower umbrella sedge, Cyperus difformis); test: Test C flooded paddy test; details: Flood, scale 0 to 100
From the text: as §5

[11] = test system: rice (transplanted and water seeded, Oryza sativa); test: Test C flooded paddy test; details: Flood, scale 0 to 100
From the text: as §5

[12] = test system: barnyardgrass (Echinochloa crus-galli); test: Test C flooded paddy test; details: Flood, scale 0 to 100
From the text: as §5

Cc1ccc2ccc(C)c(-c3c(O)c(Cl)nn(C)c3=O)c2c1 [Cpd. No. 20, 6-chloro-4-(2,7-dimethyl-1-naphthalenyl)-5-hydroxy-2-methyl-3(2H)-pyridazinone]
8: Plant response rating, Blackgrass ([1]; Preemergence, 31 g ai/ha)
12: Plant response rating, Wheat, Spring ([2]; Preemergence, 31 g ai/ha)
80: Plant response rating (0 to 100 scale) ([8]; Postemergence, 31 g ai/ha)
15: Plant response rating, Blackgrass ([1]; Postemergence, 16 g ai/ha) | Plant response rating, Wheat, Spring ([2]; Postemergence, 16 g ai/ha) | Plant response rating, Barley, Winter ([3]; Postemergence, 62 g ai/ha) | Plant response rating, Barley, Winter ([3]; Postemergence, 125 g ai/ha) | Plant response rating, Oilseed Rape ([4]; Postemergence, 16 g ai/ha) | Plant response rating, Oilseed Rape ([4]; Postemergence, 31 g ai/ha)
100: Plant response rating (0 to 100 scale) ([5]; Postemergence, 125 g ai/ha) | Plant response rating (0 to 100 scale) ([5]; Preemergence, 31 g ai/ha) | Plant response rating (0 to 100 scale) ([5]; Preemergence, 125 g ai/ha) | Plant response rating (0 to 100 scale) ([7]; Postemergence, 125 g ai/ha) | Plant response rating (0 to 100 scale) ([7]; Preemergence, 125 g ai/ha) | Plant response rating (0 to 100 scale) ([8]; Postemergence, 125 g ai/ha) | Plant response rating (0 to 100 scale) ([8]; Preemergence, 125 g ai/ha)
28: Plant response rating, Wheat, Spring ([2]; Preemergence, 62 g ai/ha)
70: Plant response rating (0 to 100 scale) (kochia (Kochia scoparia); Postemergence, 31 g ai/ha) | Plant response rating (0 to 100 scale) ([8]; Preemergence, 31 g ai/ha) | Plant response rating, Ducksalad ([9]; 125 g ai/ha) | Plant response rating, Sedge, Umbrella ([10]; 250 g ai/ha)
20: Plant response rating, Blackgrass ([1]; Preemergence, 62 g ai/ha) | Plant response rating, Oilseed Rape ([4]; Postemergence, 62 g ai/ha) | Plant response rating (0 to 100 scale) ([6]; Preemergence, 31 g ai/ha) | Plant response rating, Barnyardgrass ([12]; 250 g ai/ha)
60: Plant response rating, Blackgrass ([1]; Postemergence, 125 g ai/ha)
0: Plant response rating, Blackgrass ([1]; Preemergence, 16 g ai/ha) | Plant response rating, Wheat, Spring ([2]; Preemergence, 16 g ai/ha) | Plant response rating, Barley, Winter ([3]; Postemergence, 16 g ai/ha) | Plant response rating, Barley, Winter ([3]; Preemergence, 16 g ai/ha) | Plant response rating, Barley, Winter ([3]; Preemergence, 31 g ai/ha) | Plant response rating, Barley, Winter ([3]; Preemergence, 62 g ai/ha) | Plant response rating, Barley, Winter ([3]; Preemergence, 125 g ai/ha) | Plant response rating, Oilseed Rape ([4]; Preemergence, 16 g ai/ha) | Plant response rating, Oilseed Rape ([4]; Preemergence, 31 g ai/ha) | Plant response rating, Oilseed Rape ([4]; Preemergence, 62 g ai/ha) | Plant response rating, Oilseed Rape ([4]; Preemergence, 125 g ai/ha) | Plant response rating, Ducksalad ([9]; 31 g ai/ha) | Plant response rating, Sedge, Umbrella ([10]; 31 g ai/ha) | Plant response rating, Sedge, Umbrella ([10]; 62 g ai/ha) | Plant response rating, Rice, Transplanted ([11]; 31 g ai/ha) | Plant response rating, Rice, Water Seeded ([11]; 31 g ai/ha) | Plant response rating, Rice, Transplanted ([11]; 62 g ai/ha) | Plant response rating, Rice, Water Seeded ([11]; 62 g ai/ha) | Plant response rating, Rice, Transplanted ([11]; 125 g ai/ha) | Plant response rating, Rice, Water Seeded ([11]; 125 g ai/ha) | Plant response rating, Rice, Transplanted ([11]; 250 g ai/ha) | Plant response rating, Rice, Water Seeded ([11]; 250 g ai/ha) | Plant response rating, Barnyardgrass ([12]; 31 g ai/ha) | Plant response rating, Barnyardgrass ([12]; 62 g ai/ha) | Plant response rating, Barnyardgrass ([12]; 125 g ai/ha)
35: Plant response rating, Wheat, Spring ([2]; Postemergence, 62 g ai/ha)
30: Plant response rating (0 to 100 scale) (kochia (Kochia scoparia); Preemergence, 31 g ai/ha) | Plant response rating, Ducksalad ([9]; 62 g ai/ha)
25: Plant response rating, Blackgrass ([1]; Postemergence, 31 g ai/ha) | Plant response rating, Wheat, Spring ([2]; Postemergence, 31 g ai/ha) | Plant response rating, Oilseed Rape ([4]; Postemergence, 125 g ai/ha)
62: Plant response rating, Wheat, Spring ([2]; Preemergence, 125 g ai/ha)
58: Plant response rating, Blackgrass ([1]; Preemergence, 125 g ai/ha)
85: Plant response rating, Ducksalad ([9]; 250 g ai/ha)
55: Plant response rating, Wheat, Spring ([2]; Postemergence, 125 g ai/ha)
90: Plant response rating (0 to 100 scale) (kochia (Kochia scoparia); Postemergence, 125 g ai/ha) | Plant response rating (0 to 100 scale) (kochia (Kochia scoparia); Preemergence, 125 g ai/ha) | Plant response rating (0 to 100 scale) ([5]; Postemergence, 31 g ai/ha) | Plant response rating (0 to 100 scale) ([6]; Postemergence, 31 g ai/ha) | Plant response rating (0 to 100 scale) ([6]; Postemergence, 125 g ai/ha) | Plant response rating (0 to 100 scale) ([6]; Preemergence, 125 g ai/ha) | Plant response rating (0 to 100 scale) ([7]; Postemergence, 31 g ai/ha) | Plant response rating (0 to 100 scale) ([7]; Preemergence, 31 g ai/ha)
5: Plant response rating, Barley, Winter ([3]; Postemergence, 31 g ai/ha)
50: Plant response rating, Blackgrass ([1]; Postemergence, 62 g ai/ha) | Plant response rating, Sedge, Umbrella ([10]; 125 g ai/ha)
